Values of other authors in US20240074994A1, “COMPOSITION OF CHLORHEXIDINE” (priority 2022, published 2024).

How the values were obtained:
HSV-1 [1] = settings: Vero cell monolayers
HSV-1 [2] = settings: 0.2% applied topically onto HSV-1 infected forehead skin of mice

Substance: Chlorhexidine
- cytolytic activity of HSV-1 (HSV-1 [1]): moderately, but significantly, inhibited
- replication of HSV-1 (HSV-1 [1]): moderately, but significantly, inhibited
- development of viral lesions (HSV-1 [2]): moderately reduced
- viral titers in the skin and trigeminal ganglia (HSV-1 [2]): moderately reduced
